According to PubChem BioAssay AID624404 (Broad Institute, 2012):
Records with an inconclusive call do not appear. Calls of active or inactive are those of the source.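 The calls were made as follows: active = luciferase signal rise whose fitted curve crosses a set activity limit at or below the top valid tested dose; inconclusive = flat fit with 30 to 70% rise, or poor fit; inactive = signal falling, flat within 30%, or crossing above top dose.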

tested on: D54 LucT luciferase reporter counterscreen, luminescence, 24 h; assay: reporter signal increase, D54 LucT cells – cell-based, luminescence, cherry pick, counter-screen for N-linked glycosylation inhibitor project, dose response (AID 624404)

Q: For `CC(=O)c1ccc(Nc2nc(-c3sc(C)nc3C)cs2)cc1`, which AC35 is on record?
A: 17.3 nM

Q: With `Nc1c2ccccc2nc2ccccc12` as the compound, how does the AC35 read?
A: 4900 nM

Q: How did the AC35 turn out when `CCC(C)[C@H](NC(=O)N1CC(=O)Nc2ccccc21)C(=O)Nc1ccccc1C` (some centres not stated) was run?
A: 2750 nM

Q: With `COc1ccc2[nH]c(C(=O)N/N=C/c3ccccc3OC)cc2c1` as the compound, how does the AC35 read?
A: 1170 nM

Q: Which AC35 does the source give for `C(=C\c1nccc2c1[nH]c1ccccc12)/c1ccccc1` here?
A: 7.01 nM

Q: Which AC35 does the source give for `C[C@@]12C(=O)Nc3ccc(F)cc3C(=O)N1[C@H]1c3cc(Cl)ccc3OC[C@@H]1[C@@H]2c1ccccc1` here?
A: 1820 nM

Q: Which AC35 does the source give for `CC(C)(C)S(=O)(=O)N1C[C@H]2CC/C=C\C/C(c3ccccc3)=C\2[C@@H]1CCO` here?
A: 536 nM

Q: How did the AC35 turn out when `CC(C)/C=C1\CC/C(=C\c2cccnc2)C1=O` was run?
A: 9160 nM

Q: Which AC35 does the source give for `COCCNC(=O)c1cc(-c2ccccc2OC)on1` here?
A: 3840 nM

Q: Which AC35 does the source give for `Cc1cccc(NC(=O)Nc2cccc(C#N)c2)n1` here?
A: 467 nM

Q: How did the AC35 turn out when `Cn1c(=O)n(C)c2cc(NC(=O)CCl)ccc21` was run?
A: 707 nM

Q: Which AC35 does the source give for `COc1ccc(/C=N/NC(=O)c2ccccc2OCc2ccccc2)c(OC)c1` here?
A: 1600 nM

Q: `COc1cc2c(cc1OC)C(=O)N1[C@H]3c4ccccc4OC[C@@H]3[C@H](c3ccccc3)[C@]1(C)C(=O)N2` was tested. Which AC35 did it give?
A: 196 nM

Q: With `Cn1c(=O)n(C)c2cc(S(=O)(=O)N3CCCc4ccccc43)ccc21` as the compound, how does the AC35 read?
A: 10200 nM

Q: `Cc1ccc(S(=O)(=O)C(NC(=O)c2ccccc2)=C(Cl)Cl)cc1` was tested. Which AC35 did it give?
A: 4390 nM

Q: `O=C(N/N=C/c1ccco1)c1ccccc1OCc1ccccc1Cl` was tested. Which AC35 did it give?
A: 1110 nM

Q: How did the AC35 turn out when `Brc1ccc(C2=Nn3c(nnc3-c3n[nH]c4c3CCC4)SC2)cc1` was run?
A: 394 nM

Q: `COc1ccc2c(c1)[C@H]1[C@H](CO2)[C@H](c2ccccc2)[C@]2(C)C(=O)Nc3cc(F)ccc3C(=O)N12` was tested. Which AC35 did it give?
A: 326 nM

Q: How did the AC35 turn out when `Cc1noc(C)c1COc1cccc(C(=O)OC(C)C(=O)Nc2ccc3c(c2)OCO3)c1` (configuration not stated) was run?
A: 1600 nM

Q: `COc1ccc(/C=C/C(=O)c2ccc(Cl)s2)cc1O` was tested. Which AC35 did it give?
A: 6020 nM

Q: How did the AC35 turn out when `COc1ccc(C2=NOC(C(=O)NCc3ccco3)C2)cc1` (configuration not stated) was run?
A: 784 nM

Q: How did the AC35 turn out when `Cc1ccc(SCC(=O)Nc2ccc(-c3nc4ccccc4[nH]3)cc2)cc1` was run?
A: 337 nM

Q: How did the AC35 turn out when `Cc1ccc(N2C(=O)Nc3ccccc3C2(O)C(=O)N2CCN(c3ccccn3)CC2)cc1C` (configuration not stated) was run?
A: 375 nM

Q: `Cc1ccc2c(c1)cc(CN(C(=O)N1CCOCC1)C1CCCC1)c1nnnn12` was tested. Which AC35 did it give?
A: 2460 nM

Q: `CCN(CC)CCNC(=O)c1cc2c(=O)n(C)c3ccccc3c2s1` was tested. Which AC35 did it give?
A: 3550 nM

Q: With `O=C(N/N=C/c1ccc(F)cc1)c1sccc1OCc1ccc(F)cc1` as the compound, how does the AC35 read?
A: 1580 nM

Q: With `COc1cc(C(=O)NC2CCN(C)CC2)ccc1Nc1ncc2c(n1)N(CCc1ccccc1)CCC(=O)N2C` as the compound, how does the AC35 read?
A: 172 nM

Q: For `C=CCn1c(SCc2c(C)noc2C)nc2sc(C)c(C)c2c1=O`, which AC35 is on record?
A: 2020 nM

Q: How did the AC35 turn out when `COc1ccccc1-c1csc(C(NC(C)=O)c2cccc(F)c2)n1` (configuration not stated) was run?
A: 590 nM

Q: `Cc1ccc2c(c1)C(=O)N1[C@H]3c4cc(C)ccc4OC[C@@H]3[C@H](c3ccccc3)[C@]1(C)C(=O)N2` was tested. Which AC35 did it give?
A: 499 nM

Q: With `O=C(N/N=C/c1ccco1)c1cc(-c2ccncc2)nc2ccccc12` as the compound, how does the AC35 read?
A: 7160 nM

Q: With `C/C(=N\O)C(=O)C(CN1CCCCC1)CN1CCCCC1` as the compound, how does the AC35 read?
A: 1210 nM

Q: For `COc1cc(Nc2c3ccccc3nc3ccccc23)cc(OC)c1OC`, which AC35 is on record?
A: 4160 nM

Q: How did the AC35 turn out when `Cc1ccc(S(=O)(=O)[N-]c2nc3ccccc3nc2-n2cc[n+](Cc3ccccc3)c2)cc1` was run?
A: 33.9 nM

Q: For `COc1cc(-c2nccc3cc4c(cc23)OCO4)cc(OC)c1OC`, which AC35 is on record?
A: 61.7 nM

Q: For `CC1CN(c2nc(-c3ccccc3)nnc2-c2ccccc2)CC(C)O1` (configuration not stated), which AC35 is on record?
A: 1390 nM

Q: How did the AC35 turn out when `Cc1ccc(-c2nc(NCCCN(C)C)c3ccccc3n2)cc1` was run?
A: 3890 nM

Q: How did the AC35 turn out when `COc1ccc(CNC(=O)c2cccc3c(-c4cccc(C(N)=O)c4)coc23)cc1OC` was run?
A: 408 nM

Q: `C[C@@]12C(=O)Nc3cc(Cl)ccc3C(=O)N1[C@H]1c3ccccc3OC[C@@H]1[C@@H]2c1ccccc1` was tested. Which AC35 did it give?
A: 282 nM

Q: With `CC[C@H](C)[C@@H](NC(=O)O[C@@H]1C(=O)c2cc(OC)ccc2O[C@H]1c1ccc(OC)c(Br)c1)C(=O)OC` as the compound, how does the AC35 read?
A: 1480 nM

Q: `COc1ccc(Cl)cc1S(=O)(=O)Nc1ccc2c(c1)n(C)c(=O)n2C` was tested. Which AC35 did it give?
A: 535 nM

Q: For `Cc1ccc(NC2=NC3(CCCC3)N=C(N)N2)c(C)c1`, which AC35 is on record?
A: 7540 nM

Q: For `O=C(Nc1ccccc1)N(CCN1CCOCC1)Cc1ccccc1F`, which AC35 is on record?
A: 2370 nM

Q: `NC(=O)CC(NC(=O)Cc1ccc(Br)cc1)c1ccc(NC2CCC2)c([N+](=O)[O-])c1` (configuration not stated) was tested. Which AC35 did it give?
A: 1710 nM

Q: With `Cc1ccc(O)c(C(=O)C=Cc2ccccc2)c1` as the compound, how does the AC35 read?
A: 8.29 nM

Q: Which AC35 does the source give for `CCOC(=O)Nc1nc2ccc(Cn3cccc3)cc2[nH]1` here?
A: 115 nM

Q: How did the AC35 turn out when `Cc1cc(C)cc(N=Cc2ccc([N+](=O)[O-])s2)c1` was run?
A: 724 nM

Q: How did the AC35 turn out when `COC(=O)c1ccc2c(=O)n(Cc3ccc(C(=O)NC(C)C)cc3)c(=S)[nH]c2c1` was run?
A: 4280 nM

Q: For `CC(=O)c1ccc(OCC(O)CN2CCN(CCN3C(=O)c4cccc5cccc(c45)C3=O)CC2)cc1` (configuration not stated), which AC35 is on record?
A: 4420 nM

Q: `Cc1ccnc(NC(=O)CN2C(=O)NC(C)(c3ccc4ccccc4c3)C2=O)c1` (configuration not stated) was tested. Which AC35 did it give?
A: 362 nM

Q: `c1ccc(-c2cc(-c3nnc4n3N=C(c3ccc5ccccc5c3)CS4)[nH]n2)cc1` was tested. Which AC35 did it give?
A: 205 nM

Q: Which AC35 does the source give for `COc1ccc2c(c1)[C@H]1[C@H](CO2)[C@H](c2ccccc2)[C@]2(C)C(=O)Nc3cc(F)c(F)cc3C(=O)N12` here?
A: 469 nM

Q: How did the AC35 turn out when `Cc1ccc2nsnc2c1NC(=O)c1ccc(-c2cc(Cl)ccc2Cl)o1` was run?
A: 1550 nM

Q: How did the AC35 turn out when `COc1ccc2c(c1)OC[C@H]1[C@H]2N2C(=O)c3cc(Br)ccc3NC(=O)[C@@]2(C)[C@H]1c1ccccc1` was run?
A: 944 nM

Q: `CCOC(=O)n1c(=O)n(Cc2ccc(OC)cc2)c2ccccc21` was tested. Which AC35 did it give?
A: > 19500 nM (inactive)

Q: `COc1cc2c(cc1OC)C(c1cccs1)N(C(=O)c1cccnc1)CC2` (configuration not stated) was tested. Which AC35 did it give?
A: 438 nM

Q: With `O=C1[C@H]2[C@@H](c3ccc(F)cc3)N3C(=O)N(c4cccc(Br)c4)C(=O)[C@@]3(Cc3ccccc3)[C@H]2C(=O)N1C1CCCCC1` as the compound, how does the AC35 read?
A: 480 nM

Q: With `CCOC(=O)c1cnc2c(ccc3ccccc32)c1NCCCN(C)C` as the compound, how does the AC35 read?
A: 515 nM

Q: For `CC(=O)c1ccc(N2CCN(C(=O)c3cccc(Oc4ccccc4)c3)CC2)cc1`, which AC35 is on record?
A: 1270 nM

Q: With `OCCCNc1c2ccccc2nc2ccccc12` as the compound, how does the AC35 read?
A: 4900 nM

Q: Which AC35 does the source give for `O=C(N/N=C/c1cccs1)c1cc(-c2cccc3ccccc23)n[nH]1` here?
A: 3530 nM

Q: How did the AC35 turn out when `COc1ccccc1NC(=O)/C=C/c1ccc2c(c1)OCO2` was run?
A: 190 nM

Q: How did the AC35 turn out when `CC1(C(=O)NCC2CCOCC2)Cc2c(-c3cccc(C(F)(F)F)c3)ccnc2O1` (configuration not stated) was run?
A: 32.5 nM

Q: With `COc1ccc2c(c1)[C@H]1[C@H](CO2)[C@H](c2ccccc2)[C@]2(C)C(=O)Nc3ccc(Cl)cc3C(=O)N12` as the compound, how does the AC35 read?
A: 148 nM

Q: For `C=CCOc1ccc(C(=O)Nc2ccccc2C(=O)NCc2cccnc2)cc1`, which AC35 is on record?
A: 109 nM

Q: With `COc1cccc(/C=C2\SC(=S)N(CCC(=O)N3CCCCC3)C2=O)c1` as the compound, how does the AC35 read?
A: 4370 nM

Q: How did the AC35 turn out when `CCc1cccc(CC)c1NC(=O)CN1C2CCCC1CC(NC(=O)Nc1cccc(OC)c1)C2` (configuration not stated) was run?
A: 3140 nM

Q: For `CC(=O)c1c(C)[nH]c(C(=O)Nc2nccs2)c1C`, which AC35 is on record?
A: 379 nM

Q: `CC1c2cc3c(cc2CCN1C(=O)c1ccc(Br)cc1)OCCCO3` (configuration not stated) was tested. Which AC35 did it give?
A: 172 nM

Q: With `CC(=O)C1=C(O)C(=O)N(c2ccc(Br)cn2)C1c1ccc(Br)cc1` (configuration not stated) as the compound, how does the AC35 read?
A: 55.2 nM

Q: For `Cc1cccc(NC(=O)c2cnn3ccccc23)c1C`, which AC35 is on record?
A: 532 nM

Q: `CCOC(=O)N/N=C/c1ccc(N(CC)CC)cc1O` was tested. Which AC35 did it give?
A: 2580 nM

Q: `N#Cc1ccc(-c2cccs2)nc1SCc1cccnc1` was tested. Which AC35 did it give?
A: 848 nM

Q: How did the AC35 turn out when `O=C(c1ccccc1-c1ccccc1)N1CCN(c2ccccn2)CC1` was run?
A: 2040 nM

Q: `O=C1c2cccc3c([N+](=O)[O-])ccc(c23)C(=O)N1CC1CCCO1` (configuration not stated) was tested. Which AC35 did it give?
A: 315 nM

Q: How did the AC35 turn out when `Nc1c(N(Cc2ccccc2)C(=O)COc2ccc([N+](=O)[O-])cc2)c(=O)[nH]c(=O)n1Cc1ccccc1` was run?
A: 303 nM

Q: For `c1ccc(Cc2nnc(Sc3ccccc3)c3ccccc23)cc1`, which AC35 is on record?
A: 3830 nM
